# Measured values as given in patent US8293272B2, “Solid pharmaceutical preparation containing levothyroxine and/or liothyronine salts” (Globopharm Pharmazeutische Produktions-und …, priority 2003, dated 2012).
# Assay: accelerated storage stability at 40° C. and 75% relative humidity (active ingredient content)
SMILES,"activity of the original quantity (160 μg levothyroxine-Na preparation, water factor 0.3, 40° C. and 75% relative humidity, 3 months)","residual activity (160 μg levothyroxine-Na preparation, water factors 0.4 to 0.5, 40° C. and 75% relative humidity, 3 months)","employed quantity still active (combination preparation containing 25 μg liothyronine-Na, water factor 0.25, one month)","content remaining (combination preparation containing 25 μg liothyronine-Na, water factor 0.4 to 0.5, 1 month)"
N[C@@H](Cc1cc(I)c(Oc2cc(I)c(O)c(I)c2)c(I)c1)C(=O)[O-].[Na+] [Levothyroxine-Na],95.2 % by weight,90.7 % by weight,,
N[C@@H](Cc1cc(I)c(Oc2ccc(O)c(I)c2)c(I)c1)C(=O)[O-].[Na+] [liothyronine-Na],,,97.7 % by weight,87.2%
